Data as given in patent US6608032B1, “Medicinal compositions” (Takara Shuzo Co., Ltd., priority 1999, dated 2003).

Assays:
[1] = tested on: HL-60 Nu cells; assay: TPA-induced intracellular peroxides in HL-60 Nu (neutrophil-like) cells; type: cell-based; settings: 50 μl of 5 mM solution, 2 hours before TPA; 5 hours; FIG. 2
Experimental: HL-60 cells were added to RPMI 1640 medium (Bio Whittaker, Code. 12-702F) containing 10% fetal calf serum and 1.3% dimethyl sulfoxide (Dojindo Laboratories, Code. 346-03615) and cultured at 37° C. for 1 week in the presence of 5% CO2 to prepare cells differentiated into neutrophil-like cells (hereinafter referred to as HL-60 Nu).
Agarobiose, agarotetraose or agarohexaose obtained in Referential Example 1 was dissolved in water at a concentration of 5 mM. The solution was sterilized by filtration. HL-60 Nu cells were suspended in RPMI 1640 medium containing 10% fetal calf serum at a concentration of 2.5×10^5 cells/2.4 ml. 50 μl of one of the oligosaccharide aqueous solutions was added to a well containing the cells. The cells were cultured at 37° C. for 2 hours in the presence of 5% CO2. Then, 50 μl of a solution containing phorbol 12-myristate 13-acetate (TPA, Gibco, Code. 13139-019) at a concentration of 5 mg/ml in water was added the well. After the cells were cultured for additional 5 hours, intracellular peroxides were determined. As control groups, a group to which TPA was not added and a group to which agarobiose, agarotetraose or agarohexaose as not added were provided.
After cultivation, 10 μl of a solution containing 2′,7′-dichlorofluorescein diacetate (Sigma, Code. D6833) at a concentration of 5 mM in dimethyl sulfoxide was added to the well. The cells were cultured for additional 30 minutes. The cells were then collected by centrifugation and washed twice in phosphate buffered saline. 2′, 7′-dichlorofluorescein, which is generated in proportion to the amount of intracellular peroxides, was determined using FACScan as described in Saibo Kogaku, Bessatsu (Cell Technology, Suppl.) Jikken Protocol Series: Kassei Sanso Jikken Protocol (Experimental Protocol Series: Experimental Protocols for Active Oxigen) (1994, Shujun-sha) pp. 51-54.

[2] = tested on: RAW264.7 cells; assay: NO production induced by LPS and IFN-γ in RAW264.7 cells (NO2− in medium, Griess); type: cell-based; settings: 10 μl of 5 mM oligosaccharide solution per 500 μl well, added 0.5 or 5 hours before LPS and IFN-γ; 12 hours; FIG. 1
Experimental: RAW264.7 cells (ATCC TIB 71) were suspended in Dulbecco's modified Eagle's medium (Bio Whittaker, 12-917F) without Phenol Red containing 10% fetal calf serum and 2 mM L-glutamine (Life Technologies Oriental, Code. 25030-149) at a concentration of 3×10^5 cells/ml. 500 μl of the suspension was added to each well of a 48-well microtiter plate and the plate was incubated at 37° C. for 6 hours in the presence of 5% CO2. 10 μl of a filter-sterilized oligosaccharide solution containing agarobiose, agarotetraose or agarohexaose prepared in Referential Example 1 at a concentration of 5 mM in water was added to the well. The plate was incubated for additional 0.5 or 5 hours. 10 μl of aqueous solution containing lipopolysaccharide (LPS, Sigma, Code. L-2012) at a concentration of 5 μg/ml and interferon-γ (IFN-γ, sold by Cosmobio, Code. GZM-MG-IFN) at a concentration of 2000 U/ml was added to the well. The plate was incubated for additional 12 hours. The concentration of […] resulting from oxidation of NO in the medium was then measured.
As control groups, a group to which LPS or IFN-γ was not added and a group to which agarobiose, agarotetraose or agarohexaose was not added were provided.
After cultivation, 100 μl of 4% Griess' reagent (Sigma, Code. G4410) was added to 100 μl of the culture supernatant, and the mixture was allowed to stand for 15 minutes at room temperature. The absorbance at 490 nm was then measured. NO2^− concentration in the medium was calculated with reference to a calibration curve prepared by using NaNO2 dissolved in the same medium at a predetermined concentration. All of the measurements were carried out in triplicate.

[3] = tested on: α-glucosidase; assay: α-glucosidase inhibition with p-nitrophenyl-α-D-glucopyranoside; type: biochemical, S. cerevisiae
Experimental: (1) An α-glucosidase activity was measured by allowing α-glucosidase to act on p-nitrophenyl-α-D-glucopyranoside (a chromogenic substrate) and calorimetrically quantifying 4-nitrophenol released by hydrolysis.
10 μl of α-glucosidase solution [40 mU/ml, derived from S. cerevisiae, Sigma, dissolved in 10 mM phosphate buffer (pH 7.2 at 37° C.)] and 10 μl of a solution containing a test sample dissolved in 10 mM phosphate buffer (pH 7.2 at 37° C.) were mixed. 80 μl of a 1.5 mg/ml substrate solution [Sigma, dissolved in 10 mM phosphate buffer (pH 7.2 at 37° C.)] was added thereto to initiate the reaction. After reacting at 37° C. for 40 minutes, the absorbance at 410 nm was measured using Shimadzu uv2200. The remaining activity therein was calculated defining the activity observed without the addition of test sample as 100%.
Agarobiose, agarotetraose, agarohexaose and agarooctaose used as test samples were those prepared in Referential Example 1. Commercially available products of anhydrogalactose (Funakoshi), neoagarobiose (Sigma), neoagarotetraose (Funakoshi) and neoagarohexaose (Funakoshi) were used.

[4] = tested on: RAW264.7 cells; assay: LPS-induced prostaglandin E2 production in RAW264.7 cells; type: cell-based; settings: 10 μl of 5 mM solution per 500 μl well, 0.5 or 5 hours before LPS; 12 hours; FIG. 3
Experimental: RAW264.7 cells (ATCC TIB 71) were suspended in Dulbecco's modified Eagle's medium (Bio Whittaker, Code. 12-604F) containing 10% fetal calf serum at a concentration of 3×10^5 cells/ml. 500 μl of the suspension was added to each well of a 48-well microtiter plate and the plate was incubated at 37° C. for 6 hours in the presence of 5% CO2. 10 μl of a filter-sterilized agarooligosaccharide solution containing agarobiose, agarotetraose or agarohexaose prepared in Referential Example 1 at a concentration of 5 mM in water was added to the well. The plate was incubated for additional 0.5 or 5 hours. 10 μl of 50 μg/ml LPS aqueous solution was then added to the well. After the plate was incubated for additional 12 hours, the amount of prostaglandin E2 was measured. As control groups, a group to which LPS was not added and a group to which agarobiose, agarotetraose or agarohexaose was not added were provided.
After cultivation, the amount of prostaglandin E2 in the culture supernatant was measured using Prostaglandin E2 ELISA Kit (Neogen, Code. 404110). All of the measurements were carried out in triplicate.

Structure (SMILES) | TPA-induced generation of intracellular peroxides [1] | NO production induced by LPS and IFN-γ [2] | Activity of inhibiting α-glucosidase (% remaining activity) ([3]; 5 μM) [%] | Activity of inhibiting α-glucosidase (% remaining activity) ([3]; 50 μM) [%] | Activity of inhibiting α-glucosidase (% remaining activity) ([3]; 500 μM) [%] | Activity of inhibiting α-glucosidase (% remaining activity) ([3]; 1000 μM) [%] | Activity of inhibiting α-glucosidase (% remaining activity) ([3]; 5000 μM) [%] | prostaglandin E2 production induced by LPS [4]
OC[C@H]1O[C@@H](O[C@H]2[C@H]3OC[C@@H]2OC(O)[C@H]3O)[C@H](O)[C@@H](O)[C@H]1O (mixture of isomers) [Agarobiose, agarobiose] | Slight inhibition | inhibited NO production induced by LPS and IFN-γ | 100 | 100 | 100 | 100 | 100 | inhibited the prostaglandin E2 production induced by LPS
OCC1OC(OC2C3COC2C(O)C(OC2C(O)C(CO)OC(OC4C5COC4C(O)C(OC4C(O)C(CO)OC(OC6C7COC6C(O)C(O)O7)C4O)O5)C2O)O3)C(O)C(O)C1O (stereo not drawn) [Agarohexaose, agarohexaose] | inhibition of TPA-induced generation of intracellular peroxides was observed | inhibited NO production induced by LPS and IFN-γ | 91 | 91 | 47 | 35 | 7 | inhibited the prostaglandin E2 production induced by LPS
OCC1OC(OC2C3COC2C(O)C(OC2C(O)C(CO)OC(OC4C5COC4C(O)C(O)O5)C2O)O3)C(O)C(O)C1O (stereo not drawn) [Agarotetraose, agarotetraose] | Slight inhibition | inhibited NO production induced by LPS and IFN-γ | 100 | 97 | 75 | 32 | 20 | inhibited the prostaglandin E2 production induced by LPS
